# Experimental data as given in US8802597B2, “Herbicidal pyrimidines” (E I du Pont de Nemours and Company, priority 2003, dated 2014).
# Key:
# Assay in all cases: Test G pre/postemergence
# Format in all cases: in vivo
# [1] = system: Italian ryegrass (Lolium multiflorum)
# Summary of the method: (§1)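 Pre- and postemergence greenhouse test; compound in non-phytotoxic solvent/surfactant mix. Post timing: 2–18 cm plants, 1- to 4-leaf. Visual rating vs controls at 12–21 d, 0 (no effect) to 100 (complete control).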
# [2] = system: quackgrass (Elytrigia repens)
# Summary of the method: as §1
# [3] = system: guineagrass (Panicum maximum)
# Summary of the method: as §1
# [4] = system: southern sandbur (Cenchrus echinatus)
# Summary of the method: as §1
# [5] = system: broadleaf signalgrass (Brachiaria platyphylla)
# Summary of the method: as §1
# [6] = system: johnsongrass (Sorghum halepense)
# Summary of the method: as §1
# [7] = system: Surinam grass (Brachiaria decumbens)
# Summary of the method: as §1
# [8] = system: common ragweed (Ambrosia elatior)
# Summary of the method: as §1
# [9] = system: annual bluegrass (Poa annua)
# Summary of the method: as §1
# [10] = system: downy bromegrass (Bromus tectorum)
# Summary of the method: as §1
# [11] = system: itchgrass (Rottboellia cochinchinensis)
# Summary of the method: as §1
# [12] = system: field bindweed (Convolvulus arvensis)
# Summary of the method: as §1
# [13] = system: barnyardgrass (Echinochloa crus-galli)
# Summary of the method: as §1
# [14] = system: common mallow (Malva sylvestris)
# Summary of the method: as §1
# [15] = Postemergence, 8 g ai/ha, scale 0 to 100
# [16] = Postemergence, 16 g ai/ha, scale 0 to 100
# [17] = Postemergence, 31 g ai/ha, scale 0 to 100
# [18] = Postemergence, 62 g ai/ha, scale 0 to 100
# [19] = Preemergence, 8 g ai/ha, scale 0-100
# [20] = Preemergence, 16 g ai/ha, scale 0-100
# [21] = Preemergence, 31 g ai/ha, scale 0-100
# [22] = Preemergence, 62 g ai/ha, scale 0-100
smiles,measurement,setting,value
"CCOC(=O)c1nc(-c2ccc(Cl)cc2)nc(N)c1Cl [Compound 64, ethyl 6-amino-5-chloro-2-(4-chlorophenyl)-4-pyrimidinecarboxylate]","Plant response rating, Ryegrass, Italian",[1]; [15],0
same,"Plant response rating, Ryegrass, Italian",[1]; [16],10
same,"Plant response rating, Ryegrass, Italian",[1]; [17],20
same,"Plant response rating, Ryegrass, Italian",[1]; [18],35
same,"Plant response rating, Ryegrass, Italian",[1]; [19],0
same,"Plant response rating, Ryegrass, Italian",[1]; [20],0
same,"Plant response rating, Ryegrass, Italian",[1]; [21],0
same,"Plant response rating, Ryegrass, Italian",[1]; [22],0
same,"Plant response rating, Quackgrass",[2]; [15],0
same,"Plant response rating, Quackgrass",[2]; [16],20
same,"Plant response rating, Quackgrass",[2]; [17],20
same,"Plant response rating, Quackgrass",[2]; [18],35
same,"Plant response rating, Quackgrass",[2]; [19],0
same,"Plant response rating, Quackgrass",[2]; [20],0
same,"Plant response rating, Quackgrass",[2]; [21],0
same,"Plant response rating, Quackgrass",[2]; [22],0
same,"Plant response rating, Guineagrass",[3]; [15],0
same,"Plant response rating, Guineagrass",[3]; [16],0
same,"Plant response rating, Guineagrass",[3]; [17],0
same,"Plant response rating, Guineagrass",[3]; [18],0
same,"Plant response rating, Guineagrass",[3]; [19],0
same,"Plant response rating, Guineagrass",[3]; [20],0
same,"Plant response rating, Guineagrass",[3]; [21],0
same,"Plant response rating, Guineagrass",[3]; [22],0
same,"Plant response rating, Sandbur",[4]; [15],0
same,"Plant response rating, Sandbur",[4]; [16],0
same,"Plant response rating, Sandbur",[4]; [17],20
same,"Plant response rating, Sandbur",[4]; [18],20
same,"Plant response rating, Sandbur",[4]; [19],0
same,"Plant response rating, Sandbur",[4]; [20],0
same,"Plant response rating, Sandbur",[4]; [21],0
same,"Plant response rating, Sandbur",[4]; [22],0
same,"Plant response rating, Signalgrass",[5]; [15],0
same,"Plant response rating, Signalgrass",[5]; [16],0
same,"Plant response rating, Signalgrass",[5]; [17],0
same,"Plant response rating, Signalgrass",[5]; [18],30
same,"Plant response rating, Signalgrass",[5]; [19],0
same,"Plant response rating, Signalgrass",[5]; [20],0
same,"Plant response rating, Signalgrass",[5]; [21],0
same,"Plant response rating, Signalgrass",[5]; [22],0
same,"Plant response rating, Johnsongrass",[6]; [15],0
same,"Plant response rating, Johnsongrass",[6]; [16],0
same,"Plant response rating, Johnsongrass",[6]; [17],0
same,"Plant response rating, Johnsongrass",[6]; [18],0
same,"Plant response rating, Johnsongrass",[6]; [19],0
same,"Plant response rating, Johnsongrass",[6]; [20],0
same,"Plant response rating, Johnsongrass",[6]; [21],0
same,"Plant response rating, Johnsongrass",[6]; [22],0
same,"Plant response rating, Surinam Grass",[7]; [15],0
same,"Plant response rating, Surinam Grass",[7]; [16],0
same,"Plant response rating, Surinam Grass",[7]; [17],0
same,"Plant response rating, Surinam Grass",[7]; [18],10
same,"Plant response rating, Surinam Grass",[7]; [19],0
same,"Plant response rating, Surinam Grass",[7]; [20],0
same,"Plant response rating, Surinam Grass",[7]; [21],0
same,"Plant response rating, Surinam Grass",[7]; [22],0
same,"Plant response rating, Ragweed",[8]; [15],75
same,"Plant response rating, Ragweed",[8]; [16],75
same,"Plant response rating, Ragweed",[8]; [17],100
same,"Plant response rating, Ragweed",[8]; [18],100
same,"Plant response rating, Ragweed",[8]; [19],65
same,"Plant response rating, Ragweed",[8]; [20],65
same,"Plant response rating, Ragweed",[8]; [21],65
same,"Plant response rating, Ragweed",[8]; [22],95
same,"Plant response rating, Bluegrass",[9]; [15],0
same,"Plant response rating, Bluegrass",[9]; [16],0
same,"Plant response rating, Bluegrass",[9]; [17],0
same,"Plant response rating, Bluegrass",[9]; [18],0
same,"Plant response rating, Bluegrass",[9]; [19],0
same,"Plant response rating, Bluegrass",[9]; [20],0
same,"Plant response rating, Bluegrass",[9]; [21],0
same,"Plant response rating, Bluegrass",[9]; [22],0
same,"Plant response rating, Bromegrass, Downy",[10]; [15],0
same,"Plant response rating, Bromegrass, Downy",[10]; [16],20
same,"Plant response rating, Bromegrass, Downy",[10]; [17],40
same,"Plant response rating, Bromegrass, Downy",[10]; [18],75
same,"Plant response rating, Bromegrass, Downy",[10]; [19],0
same,"Plant response rating, Bromegrass, Downy",[10]; [20],0
same,"Plant response rating, Bromegrass, Downy",[10]; [21],0
same,"Plant response rating, Bromegrass, Downy",[10]; [22],0
same,"Plant response rating, Itchgrass",[11]; [15],0
same,"Plant response rating, Itchgrass",[11]; [16],0
same,"Plant response rating, Itchgrass",[11]; [17],0
same,"Plant response rating, Itchgrass",[11]; [18],60
same,"Plant response rating, Itchgrass",[11]; [19],0
same,"Plant response rating, Itchgrass",[11]; [20],0
same,"Plant response rating, Itchgrass",[11]; [21],0
same,"Plant response rating, Itchgrass",[11]; [22],20
same,"Plant response rating, Bindweed, Field",[12]; [15],60
same,"Plant response rating, Bindweed, Field",[12]; [16],70
same,"Plant response rating, Bindweed, Field",[12]; [17],80
same,"Plant response rating, Bindweed, Field",[12]; [18],90
same,"Plant response rating, Bindweed, Field",[12]; [19],0
same,"Plant response rating, Bindweed, Field",[12]; [20],0
same,"Plant response rating, Bindweed, Field",[12]; [21],0
same,"Plant response rating, Bindweed, Field",[12]; [22],65
same,"Plant response rating, Barnyardgrass",[13]; [15],0
same,"Plant response rating, Barnyardgrass",[13]; [16],20
same,"Plant response rating, Barnyardgrass",[13]; [17],20
same,"Plant response rating, Barnyardgrass",[13]; [18],20
same,"Plant response rating, Barnyardgrass",[13]; [19],0
same,"Plant response rating, Barnyardgrass",[13]; [20],0
same,"Plant response rating, Barnyardgrass",[13]; [21],0
same,"Plant response rating, Barnyardgrass",[13]; [22],10
same,"Plant response rating, Mallow",[14]; [15],65
same,"Plant response rating, Mallow",[14]; [16],80
same,"Plant response rating, Mallow",[14]; [17],90
same,"Plant response rating, Mallow",[14]; [18],90
same,"Plant response rating, Mallow",[14]; [19],0
same,"Plant response rating, Mallow",[14]; [21],0
same,"Plant response rating, Mallow",[14]; [22],0
